The results in this text go back to patent US20250000043A1, “NON-TRANSGENIC SUNFLOWER PLANTS HAVING INCREASED TOLERANCE TO HERBICIDES” (BASF Agricultural Solutions Seed US LLC, priority 2021, published 2025).

Like-named read-outs stand apart in the source and are kept apart here.

Assay [1] concerns homozygous PPO2_F4201 sunflower (HA452-M). In words: Greenhouse PPO cross-tolerance trial, mutant (Example 7). The assay is classed as in vivo. As for the experimental part: (§1) In August of 2021, a greenhouse herbicide trial was carried out in Zwijnaarde, Belgium. A homozygous PPO2_F4201 sunflower seed lot (HA452-M), and a wild type (WT) sunflower line (RHA473) were used in the greenhouse trial. Sixteen homozygous PPO2_F4201 mutant plants and six WT plants were sown and treated with each herbicide. […]

Assay [2] relates to Wild Type (WT) sunflower line. The experiment in a line: Field PPO cross-tolerance trial, wild type (Example 8). The assay is classed as in vivo. The settings on record: for Phytotoxicity (%) Wild Type (WT) 6DAT / Phytotoxicity (%) Wild Type (WT) 11DAT / Phytotoxicity (%) Wild Type (WT) 14DAT: MSO 1% v/v. As for the experimental part: (§2) A field trial was carried out to assess PPO cross-tolerance in non-introgressed, selfed, homozygous PPO2_F4201 mutants, as well as to assess tolerance differences using increasing rates of herbicides listed in Table 5. The field trial was done in Utrera, Spain, in September of 2021.
(§3) Herbicide treatments (Table 5) were applied in the field when plants had the BBCH12-14 growth stage (2-4 leaves). The field trial design was the randomized complete block design, and 1 replication was considered due to limitation in seed availability. Two entries were used in the field trial, the WT line and the PPO2_F4201 mutant. The experimental plot consisted of 1 entry per plot and 1 row per entry.
(§4) Phytotoxicity of mutant and WT entries was recorded over time, at 6, 11 and 14 DAT, where 100% phytotoxicity indicates complete control (dead plants), and 0% phytotoxicity indicates no control or alive plants without any herbicide injury.

Assay [3] has as its system wild type (WT) sunflower line (RHA473). The experiment in a line: Greenhouse PPO cross-tolerance trial, wild type (Example 7). The assay is classed as in vivo. On the procedure: as §1
The test system of assay [4] is PPO2_F420I Mutant sunflower. The experiment in a line: Field PPO cross-tolerance trial, mutant (Example 8). The assay is classed as in vivo. As to conditions: MSO 1% v/v. As for the experimental part: as §2, §3, §4
A further assay addresses wild-type PPO2 enzyme (Helianthus annuus, UniProt A0A251TWC2). The experiment in a line: In vitro PPO inhibition assay, wild type enzyme (Example 5). The assay is classed as biochemical, sunflower. The source says:
(§5) To test whether the PPO2_F383I is the main cause of the observed saflufenacil tolerance, we used an in vitro to compare the inhibition potency (IC50) of different PPO inhibiting herbicides between wild-type and mutant PPO2 enzyme. The in vitro assay assesses the oxidation of protoporphyrinogen IX to protoporphyrin IX, catalyzed by the PPO enzyme. Both the wild type and mutant PPO2 proteins were heterologously expressed in E. coli and purified. Purified protein was mixed with different concentrations of the herbicide ranging from 10^−5M to 10^−11M and protein activity was measured. Protein activity is defined as the fluorescence per minute that the reaction generates. In the reaction, the purified PPO enzyme is mixed with substrate protoporphyrinogen IX and the herbicide. The product of the reaction is excited at 405 nm and produces a fluorescence at 630 nm which we detect. IC50 (in Mol) and tolerance factor were calculated.

Assay [5] deals with PPO2_F383I mutant PPO2 enzyme. In words: In vitro PPO inhibition assay, mutant enzyme (Example 5). The assay is classed as biochemical, sunflower. As to conditions: PPO2_F383I versus wild type IC50.
Excerpt: as §5

The target in assay [6] is PPO2_F383I mutant PPO2 enzyme (Helianthus annuus, UniProt A0A251TWC2, F383I). The description is as above. The assay is classed as biochemical, sunflower.
PPO2_F383I mutant PPO2 enzyme (Helianthus annuus, UniProt A0A251TWC2, F383I), sequence (A0A251TWC2 entry or part of it F383I): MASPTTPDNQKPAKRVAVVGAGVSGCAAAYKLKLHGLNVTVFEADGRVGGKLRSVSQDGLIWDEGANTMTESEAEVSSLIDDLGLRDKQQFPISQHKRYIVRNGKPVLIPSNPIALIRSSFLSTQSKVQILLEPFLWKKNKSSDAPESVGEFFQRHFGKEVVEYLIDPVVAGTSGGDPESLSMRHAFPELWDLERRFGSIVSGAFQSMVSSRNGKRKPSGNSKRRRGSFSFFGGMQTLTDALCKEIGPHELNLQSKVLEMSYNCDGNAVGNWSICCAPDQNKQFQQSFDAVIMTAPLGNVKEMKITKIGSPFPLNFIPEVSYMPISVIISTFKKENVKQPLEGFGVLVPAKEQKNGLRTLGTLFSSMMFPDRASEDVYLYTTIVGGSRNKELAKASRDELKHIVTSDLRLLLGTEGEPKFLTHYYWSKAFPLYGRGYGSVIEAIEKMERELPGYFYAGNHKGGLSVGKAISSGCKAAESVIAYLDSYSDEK
Excerpt: as §5

The IC50 is the concentration that gives 50% inhibition.

wild-type PPO2 enzyme, sequence (A0A251TWC2 entry or part of it): as the sequence (A0A251TWC2 entry or part of it F383I) above, with I383F counted along it

For `C#CCN1C(=O)COc2cc(F)c(N3C(=O)C4=C(CCCC4)C3=O)cc21` [Flumioxazin], the “recovery of PPO2_F4201 plants after early phytotoxicity at 4 DAT” value in assay [1] (10 DAT) is “consistent survival and recovery”. Moreover, the “survival of PPO2_F4201 plants” value in assay [1] (all rates tested, MSO 1% v/v) is recorded as “survived at all rates”. Besides, the “Phytotoxicity (%) Wild Type (WT) 6DAT” value is 80% in assay [2] (45 g a.i./ha), 80% in assay [2] (55 g a.i./ha) and 85% in assay [2] (65 g a.i./ha). Further, the “Phytotoxicity (%) Wild Type (WT) 11DAT” value in assay [2] (45 g a.i./ha) is on record as 75%; in assay [2] (55 g a.i./ha), 70%; in assay [2] (65 g a.i./ha), 80%. In addition, the figures for the “Phytotoxicity (%) Wild Type (WT) 14DAT” value in assay [2] (45 g a.i./ha), in assay [2] (55 g a.i./ha) and in assay [2] (65 g a.i./ha) were 75%, 70% and 80%, respectively. Moreover, the WT control level in assay [2] (across flumioxazin rates (45, 55, 65 g a.i./ha)) is given as 75-80%. The “surviving WT plants” value in assay [3] (4 g/ha, 10 DAT) is given as “one”. The “phytotoxicity score of WT plants” value in assay [3] (dose as low as 4 g/ha, greenhouse) is reported as 90-100%. Further, the “Phytotoxicity (%) PPO2_F420I Mutant 6DAT” value is given as 20% in assay [4] (45 g a.i./ha), 30% in assay [4] (55 g a.i./ha) and 30% in assay [4] (65 g a.i./ha). The “Phytotoxicity (%) PPO2_F420I Mutant 11DAT” value in assay [4] (45 g a.i./ha) is 20%; in assay [4] (55 g a.i./ha), 25%; in assay [4] (65 g a.i./ha), 30%. Also, the “Phytotoxicity (%) PPO2_F420I Mutant 14DAT” value is recorded as 10% in assay [4] (45 g a.i./ha), 15% in assay [4] (55 g a.i./ha) and 20% in assay [4] (65 g a.i./ha).

In the case of `COC(=O)CCNC(=O)C(C)Sc1cc(-n2c(=O)cc(C(F)(F)F)n(C)c2=O)c(F)cc1Cl` (centres unmarked) [Tiafenacil], the IC50 was 0.93 nM at wild-type PPO2 enzyme (purified enzyme expressed in E. coli, herbicide 10^-5 M to 10^-11 M, read-out: Wild type IC50) and 1300 nM in assay [6] (purified enzyme expressed in E. coli, herbicide 10^-5 M to 10^-11 M, read-out: PPO2_F383I IC50). The compound further yielded a Tolerance factor in assay [5] of 1398.

As to `C#CCN1C(=O)C(F)(F)Oc2cc(F)c(-n3c(=O)n(C)c(=S)n(C)c3=O)cc21` [Trifludimoxazin (Tirexor ™), 1,5-dimethyl-6-thioxo-3-(2,2,7-trifluoro-3-oxo-4-(prop-2-ynyl)-3,4-dihydro-2H-benzo[b][1,4]oxazin-6-yl)-1,3,5-triazinane-2,4-dione], the IC50 on wild-type PPO2 enzyme was 1.4 nM; in assay [6], 4560 nM. Also, the Tolerance factor in assay [5] is reported as 3257.
